Laboratory results published in article PMC11610669, “A Spectroscopic Study on the Amyloid‐β Interaction with Clicked Peptide‐Porphyrin Conjugates: a Vision Toward the Detection of Aβ Peptides in Aqueous Solution” (Chembiochem, 2024).

Key:
Aβ8–20 = assay: CD of conjugate with Aβ8–20 fragment; assay type: binding
Experimental: To better visualize how the induced signal increases as Aβ42 adopts the β‐sheet conformation, a comparative graph displaying the absolute value of the CD intensities at the maximum absorption wavelength for each derivative, either in the presence or absence of Aβ42 over the same time interval, is reported in the SI (Figure 7S). […] (Figure 8S panel a). […] We assume that the conjugate Zn‐Ph‐Pep conjugate could similarly interact with the Aβ8–20 fragment.
Spectra were recorded on a J‐810 spectrometer (Jasco, Japan) under a constant flow of N2 at room temperature. The CD measurements were performed in the wavelength regions (190–260 nm, 195–350 nm and 350–500 nm) using a 1 cm path length quartz cell. All aggregation kinetics were monitored up to 120 hours. The CD spectra were recorded for Aβ42 (5 μM and 20 μM) monomer in the absence or in the presence of porphyrin‐peptide conjugates (5 μM and 20 μM for the 1 : 1 molar ratios). Monomerized samples of Aβ42 (5 μM and 20 μM) were solubilized in 50 μL of NaOH 20 mM (2,5 %) and after were diluted with 1950 μL of 10 mM phosphate buffer at pH 7.4 pure or containing the solubilized conjugates.

Aβ42 = Aβ42 (Homo sapiens, UniProt P05067); assay: Grating-Coupled Interferometry (GCI) binding to immobilized Aβ42; conditions: GCI fit quality parameter
Sequence of Aβ42 (P05067 672-713 limits assumed): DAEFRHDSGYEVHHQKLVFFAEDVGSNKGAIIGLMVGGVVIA
Experimental: The Grating‐Coupled Interferometry (GCI) is a widely used analytical technique for characterizing intermolecular interactions. It allows quantitative measurements of both the affinity and the kinetics of the binding events. This high sensitivity label‐free method was exploited to measure the interactions of Aβ42 with Cu‐Ph‐Pep , Ph‐Pep , and Zn‐Ph‐Pep (Figure 5S). Control experiments with pristine MCPTPyP and the peptide GPGKLVFF ( Pep ) were carried out for comparison. The calculated association and dissociation kinetic constants (kon and koff, respectively) and the thermodynamic binding constant (KD), are summarized in Table 1. The obtained values indicate that all the conjugates show good affinities with Aβ42. It is also clear from Table 1 that the peptide moiety is fundamental for the molecular recognition of the Aβ42 peptide.[48] […] Nevertheless, it is important to emphasize that the interaction with Aβ42 is primarily mediated by the peptide rather than by the porphyrin macrocycle. We next investigated whether these peptide derivatives could be employed as molecular probes for the detection of Aβ42 aggregated species. A new set of CD experiments was then carried out with Aβ42 at 20 μM both in the absence and in the presence of the porphyrin‐peptide conjugates at 1 : 1 molar ratio in the UV (195–350) and Visible (350–500) regions. […] The signal rapidly evolved toward the typical β‐sheet profile (already within 24 h) with a single minimum at 216 nm, an x‐axis intercept at 202 nm and a maximum shift at a wavelength 195 nm.[49] […] For the sake of comparison, the CD spectra of the porphyrin‐peptide conjugates at 20 μM were also recorded in the same experimental conditions, both in the far‐UV and Visible regions (Figure 6S).
The experiments were performed on a Creoptix WAVE system (Creoptix). Borate buffer (100 mM sodium borate pH 9.0, 1 M NaCl) was used for chip conditioning. Aβ42 peptide (20 μg/ml in Na Acetate pH 4.5) was immobilized on 4PCH WAVE chips (quasiplanar polycarboxylate surface; Creoptix) according to the manufacturer instructions at a final density of 1910±40 pg/mm^2. Single‐cycle sequential injections of dilution series for each Porphyrin‐Peptide conjugates in running buffer (PBS, 0.005 % Tween 20, 1 % DMSO, 0.2 mg/ml BSA) were performed at 25 °C, using a flow rate of 100 μl/min. In details, for the conjugate Cu‐Ph‐Pep , 1 : 2 dilution series starting from 200 μM were injected for 10 s association time, 45 s dissociation time, followed by a dissociation time of 600 s for the last higher concentration injection. Finally, for the conjugates Ph‐Pep and Zn‐Ph‐Pep , 1 : 2 dilution series starting from 50 μM and 100 uM, respectively, were injected for 30 s association time, 45 s dissociation time, followed by a dissociation time of 600 s for the last higher concentration injection. Blank injections were used for double referencing and a DMSO calibration curve for bulk correction. Analysis and correction of the obtained data were performed using the Creoptix WAVE control software (correction applied: X and Y offset; DMSO calibration; double referencing). Mass transport binding models with bulk correction were used to fit all experiments. All the experiments have been performed at least in triplicate.
Figure 5S. Quantitative binding kinetics of Aβ42 vs a) MCPTPyP; b) Cu-Ph-Pep; c) Ph-Pep; d) Zn-Ph-Pep; and e) Pep measured by GCI. All curves were blank subtracted. Experiments were performed in triplicate. All the quality assessments (i.e., χ2 shown in Table 1 of the main text , parameter errors, and residual plots were acceptable; the sensorgrams had sufficient curvatures an d the kinetic constant k off were within the measurable range) were fulfilled. Descriptive Statistical Analysis was employed to calculate the mean of the obtained values of k on, koff and KD as a measure of central tendency and standard deviations of the former values were computed as a measure of dispersion.
Figure 6S. […]

[1] = Porphyrin fluorescence in buffer; assay type: physicochemical; conditions: 5 μM, 10 mM phosphate buffer pH 7.4, excitation 425 nm; vs pristine MCPTPyP
Text: Peptide conjugation influences the spectral features of the porphyrin chromophore as evidenced by the red shift in the absorption maximum in the region of the Soret band region. The Q bands are also affected, particularly in the Cu‐Ph‐Pep and Zn‐Ph‐Pep compounds (Figure 1). In this case the presence of a metal ion within the porphyrin's core might contribute to the observed spectral profile of these compounds. […] The fluorescence spectra of the investigated systems were also acquired in view of the interaction of the studied conjugates with cells (see below biological section).[41] The fluorescence spectra were recorded with the photoexcitation at 425±5 nm, in 10 mM phosphate buffer pH 7.4 and 5 μM concentration. The emission spectrum of the porphyrin precursor MCPTPyP ( Ph ) was also obtained for the sake of comparison.
Spectra were recorded on a Horiba Fluoro‐max‐4 spectrofluorometer from 440–800 nm in 1 nm steps, at an excitation wavelength λexc=425 nm, at room temperature. The final fluorescence spectra represent averages of at least three measurements. Bandwidths of 5 nm for both excitation and emission were used. The sample of the compound used to record absorption spectra were the same as those for the CD spectra.

SMILES: COC(=O)[C@H](Cc1cn(CCCC[C@H](NC(=O)CNC(C)=O)C(=O)N2CCC[C@H]2C(=O)NCC(=O)N[C@@H](CCCCN)C(=O)N[C@@H](CC(C)C)C(=O)N[C@H](C(=O)N[C@@H](Cc2ccccc2)C(=O)N[C@@H](Cc2ccccc2)C(N)=O)C(C)C)nn1)NC(=O)c1ccc(-c2c3nc(c(-c4cc[n+](C)cc4)c4ccc([nH]4)c(-c4cc[n+](C)cc4)c4nc(c(-c5cc[n+](C)cc5)c5ccc2[nH]5)C=C4)C=C3)cc1 [Zn‐Ph‐Pep]
- conformation of Aβ8–20/conjugate mixture (Aβ8–20; Far-UV CD): significant amount of random coil conformation
- induced CD signal in visible region with Aβ8–20 (Aβ8–20; same experimental conditions as with Aβ42): no induced CD signal is clearly detectable
- χ^2 (average of the squared residuals, fitting confidence) (Aβ42): 0.49±0.09
- fluorescence emission intensity [1]: somewhat decreased
